Key:
GR = target: T1, GR (Homo sapiens, UniProt P04150); assay: CHO-GR B4.8 MMTV-luciferase induction of gene expression (agonistic); type: cell-based; parameters: expressed in transfected cells; settings: for Max. eff., MMTV-luc induction: relative to maximal effect of prednisolone (100%)
T1 sequence (P04150 1-777): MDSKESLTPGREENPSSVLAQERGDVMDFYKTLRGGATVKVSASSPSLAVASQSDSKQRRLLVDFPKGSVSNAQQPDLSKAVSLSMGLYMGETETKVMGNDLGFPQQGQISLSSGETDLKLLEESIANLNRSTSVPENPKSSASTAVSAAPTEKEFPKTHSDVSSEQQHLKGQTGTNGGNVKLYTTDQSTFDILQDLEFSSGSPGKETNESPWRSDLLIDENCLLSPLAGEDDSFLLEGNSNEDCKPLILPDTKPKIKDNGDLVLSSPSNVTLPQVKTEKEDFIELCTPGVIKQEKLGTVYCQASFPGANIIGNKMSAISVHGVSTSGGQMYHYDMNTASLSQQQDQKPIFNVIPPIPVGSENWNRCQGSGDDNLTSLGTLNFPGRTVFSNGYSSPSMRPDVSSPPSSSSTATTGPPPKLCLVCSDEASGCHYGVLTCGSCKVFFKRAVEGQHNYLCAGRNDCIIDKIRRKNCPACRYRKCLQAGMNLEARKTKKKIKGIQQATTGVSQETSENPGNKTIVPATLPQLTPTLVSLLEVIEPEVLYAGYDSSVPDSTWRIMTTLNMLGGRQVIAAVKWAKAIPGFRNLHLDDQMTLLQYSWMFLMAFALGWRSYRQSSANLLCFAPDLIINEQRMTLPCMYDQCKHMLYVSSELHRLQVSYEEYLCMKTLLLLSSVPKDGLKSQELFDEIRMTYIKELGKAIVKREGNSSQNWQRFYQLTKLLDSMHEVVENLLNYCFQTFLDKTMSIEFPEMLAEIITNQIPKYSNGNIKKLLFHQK
From the text: For monitoring both human steroid receptor agonistic as well as antagonistic activity of compounds, Chinese hamster ovary (CHO) K1 cells stably co-transfected with the specific human steroid receptor and its respective reporter construct were used (as previously described).
For human glucocorticoid receptor (GR)-specific activity CHO-GR B4.8 cells containing both recombinant human GR as well as a reporter construct consisting of the mouse mammary tumor virus (MMTV) promotor and the luciferase reporter gene, were used. Compound was incubated alone (in the agonistic setup) or with 50 nM dexamethasone (in the antagonistic setup) overnight. Hereafter, 200 µl medium was removed and 50 µl luciferine substrate solution from the LucLite luminescence kit (Packard, Meriden, USA) was added. […] Percentage maximal antagonistic efficacy was related to the maximal antagonistic efficacy of reference GR antagonist Org 34116. Similar procedures were followed for the other human steroid receptor assays (for more detailed information see Supportive Information) (SI text).
For human glucocorticoid receptor (GR)-specific activity CHO-GR B4.8 cells containing both recombinant human GR as well as a reporter construct consisting of the mouse mammary tumor virus (MMTV) promotor and the luciferase reporter gene, were used. Compound was incubated alone (in the agonistic setup) or with 50 nM dexamethasone (in the antagonistic setup) in microtiter white culture plates seeded with 2.4 x 10^4 cells / 200 µl Dulbecco’s MEM/Nutrient Mix F12 medium (Gibco) supplemented with 5% charcoal treated defined bovine calf serum supplement (DBCSS, Hyclone, Utah, USA), and 10 U/ml Penicillin-10μg/ml Streptomycin (GibcoBRL) overnight at 37°C in the dark under a humidified atmosphere flushed with 5% CO2 in air. Hereafter, 200 µl medium was removed and 50 µl luciferine substrate solution from the LucLite luminescence kit (Packard, Meriden, USA) was added. After 10 minutes (when cell lysis was complete) luminescence of each sample was counted using a Topcount microplate luminescence counter. Percentage maximal agonistic efficacy was related to the maximal efficacy of dexamethasone. Percentage maximal antagonistic efficacy was related to the maximal antagonistic efficacy of reference GR antagonist Org 34116. EC50 value was calculated by 4-parameter curve fitting using the effect of 6 compound concentrations.

[1] = target: T2, His-GR-LBD (F602S mutated) (Homo sapiens, UniProt P04150, F602S); assay: Co-factor-peptide (TIF2-3) recruitment assay; type: biochemical; settings: for Emax: read-out: percentage maximal efficacy (%CV), recruitment of TIF2-3 peptide
T2 construct: E. coli produced His-GR-LBD (F602S mutated) at 10 nM; made in house; host or cells: E. coli
T2 sequence (P04150 524-758 F602S limits assumed): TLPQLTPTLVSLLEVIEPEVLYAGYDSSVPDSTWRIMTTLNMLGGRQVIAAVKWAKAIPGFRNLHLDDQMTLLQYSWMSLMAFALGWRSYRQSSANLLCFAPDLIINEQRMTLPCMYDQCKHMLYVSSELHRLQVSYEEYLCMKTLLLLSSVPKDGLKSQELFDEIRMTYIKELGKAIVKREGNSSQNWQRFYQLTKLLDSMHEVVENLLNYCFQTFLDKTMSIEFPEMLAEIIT
Method: Hereafter, peptide, representing Transcriptional Intermediary Factor 2 – LXXLL motif 3 (TIF2-3) at 100 nM (final concentration), streptavidin-APC (8 nM, final concentration) and anti-His-Eu (1.25 nM final concentration) were added to a total volume of 50 μL/well and incubation at 4°C was continued for another 20 hours. Fluorescence was measured using Tecan Infinite M1000 and data were analysed by GraphPad Prism.

| EC50 (GR; CHO cells co-transfected with human GR and MMTV-luciferase, mean (±SD), read-out: EC50, MMTV-luc induction) [nM] | Max. eff., MMTV-luc induction (GR; listed as Org) | EC50 ([1]; 0.1 μM peptide, read-out: EC50 (%CV), recruitment of TIF2-3 peptide) [nM] | SMILES | Max. eff., MMTV-luc induction (GR) [%] | Emax [1] [%] |
| --- | --- | --- | --- | --- | --- |
|  |  |  | C[C@]12C=CC(=O)C=C1CC[C@@H]1[C@@H]2[C@@H](O)C[C@@]2(C)[C@H]1CC[C@]2(O)C(=O)CO [prednisolone, reference compound] | 100 | 100 |
| 5.1 | 32 (±8.1) % | 10 | Cc1nnsc1C(=O)N[C@H]1CCN2c3ccc(C#N)cc3[C@@H](C)c3ccccc3[C@@H]2C1 [Org 214007-0] | 32 | 67 |

From paper PMC3495945, “Org 214007-0: A Novel Non-Steroidal Selective Glucocorticoid Receptor Modulator with Full Anti-Inflammatory Properties and Improved Therapeutic Index” (PLoS ONE, 2012)
